From paper PMC11481179, “Development and Application of Reversible and Irreversible Covalent Probes for Human and Mouse Cathepsin‐K Activity Detection, Revealing Nuclear Activity” (Advanced Science, 2024)

Molecular target: T1, endogenous CTSK in intact U-2 OS cells (Homo sapiens, UniProt P43235)
T1 construct: ability to label endogenous CTSK activity in intact cells; endogenous in cells; host or cells: U-2 OS
T1 sequence (P43235 115-329): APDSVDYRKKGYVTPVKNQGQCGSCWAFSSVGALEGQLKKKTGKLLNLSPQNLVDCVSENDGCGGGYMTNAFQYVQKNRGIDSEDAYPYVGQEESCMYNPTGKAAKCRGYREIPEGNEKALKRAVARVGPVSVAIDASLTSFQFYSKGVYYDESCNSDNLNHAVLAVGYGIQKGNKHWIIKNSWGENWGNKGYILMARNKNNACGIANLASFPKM
Assay: Labeling of endogenous CTSK in intact cells, fluorescent SDS-PAGE
Format: cell-based
Procedure: To test probe selectivity and the ability to label endogenous CTSK activity in intact cells, three cell lines were selected: human osteosarcoma MG‐63 and U‐2 OS, and human glioblastoma U‐87 MG; all cell lines express CTSK along with other lysosomal cathepsins.^[ [44] ^] First, the ABPs were incubated with intact U‐2 OS cells for different durations of time, and the probe selectivity toward CTSK was examined, with a pan cathepsin ABP, GB123, used as a control that labels CTS B, K, L, and S in cells. After cell lysis, the probe‐labeled enzymes were resolved and detected by a fluorescent scan of the SDS‐PAGE. […] Specifically, intact MG‐63 cells required a 5 h incubation (Figure 2b,c), while U‐87 MG cells required a 2 h incubation (Figure 2d).
Figure 2 Labeling of endogenous CTSK in intact cells. a) U2‐OS cells were treated with DMSO or 5 µM of the indicated inhibitors in culture medium, for 2 h, then with indicated ABPs [5 µM] in a culture medium for indicated times, followed by cell lysis, SDS‐PAGE separation, and fluorescent scanning of the gel at 635/670 nm. An immunoblot of CTSK of the same gel is presented below. b) Intact MG63 cells were treated with GD32 5 µM in the culture media for indicated times, cell lysates were analyzed as in a. CTSK immunoblot is presented, pro and mature CTSK are indicated by arrows. c) MG63 cells and d) U87MG cells were treated with DMSO, or 5 µM of indicated inhibitors in culture medium for 2 h, followed by incubation with 5 µM of indicated probes for 5 h (GD32 and GD42) and 2 h (GB123), cell lysates were analyzed by fluorescent SDS PAGE as in a. […] In (c) a CTSK immunoblot of a representative MG63 lane on the right. e) Labeling of active mature CTSK by GD32 in A549 and U2‐0S cells in externally adjusted different pH. Cells were incubated with 5 µM GD32 for 24 h in growth media at indicated pHs, prior to the cell lysis, cell lysates were analysed as in a. CTSK immunoblot below. f) A549 cells were incubated with increasing concentrations of GD30 for 2 h at pH = 5, followed by the incubation with 5 µM GD32 for 24 h prior to the cell lysis, cell lysates were analyzed as in a. g) Intact U‐87 MG cells or U‐87 MG cell lysates were treated with 5 µM GD32 for 2 h, the intact cells were then lysed and all lysates were analyzed as in (a). h) Intact or lysates of U‐87MG were treated with GD32 for 2 h then immunoprecipitation was done with an anti‐CTSK antibody. Input (I), immunoprecipitation (IP), and output (O) were separated by a 14% SDS‐PAGE and scanned for fluorescence. The gel was then blotted and reacted with an anti‐cystatin B antibody below. ODN (Odanacatib), GB111 (GB111‐NH2), mCTSK (mature CTSK). […]
deoxycholate). After adding sample buffer, samples were boiled for 10 minutes, and analyzed […]
lysates were analyzed as described above. […]

| effect of inhibitor preincubation on GD32-labeled CTSK band (inhibitor 5 µM, 2 h, then GD32 5 µM) | CTSK specificity of labeling (probe 5 µM, incubation up to 24 h) | SMILES |
| --- | --- | --- |
| depletion of the CTSK‐specific band | – | C#CCNC(=O)[C@H](CC(C)C)N[C@@H](c1ccc(-c2ccc(S(=O)(=O)CCNC(=O)OC(C)(C)C)cc2)cc1)C(F)(F)F [GD30] |
| – | retained its CTSK specificity up to 24 h | C#CCNC(=O)[C@H](CC(C)C)N[C@@H](c1ccc(-c2ccc(S(=O)(=O)CCNC(=O)CCCCC[N+]3=C(/C=C/C=C/C=C4/N(C)c5ccc(S(=O)(=O)O)cc5C4(C)C)C(C)(C)c4cc(S(=O)(=O)O)ccc43)cc2)cc1)C(F)(F)F [GD32] |
